Test results from ChEMBL document CHEMBL4376868, “Structure-Activity Relationship Study of Novel 6-Aryl-2-benzoyl-pyridines as Tubulin Polymerization Inhibitors with Potent Antiproliferative Properties” (J Med Chem, 2020).
One block for each compound: values may come before it. Activity calls are given as the source filed them. The calls are words filed in the database; no cut-off is given here.

How the values were obtained:
[1] = system: M14; assay: Antiproliferative activity against human M14 cells measured after 72 hrs by MTS assay; assay type: functional, cell-based; conditions: M14, 72 h
[2] = system: SK-BR-3; assay: Antiproliferative activity against human SK-BR-3 cells measured after 72 hrs by MTS assay; assay type: functional, cell-based; conditions: SK-BR-3, 72 h
[3] = system: A-375; assay: Antiproliferative activity against human A375 cells measured after 72 hrs by MTS assay; assay type: functional, cell-based; conditions: A-375, 72 h
[4] = system: RPMI-7951; assay: Antiproliferative activity against human RPMI7951 cells measured after 72 hrs by MTS assay; assay type: functional, cell-based; conditions: RPMI-7951, 72 h
[5] = molecular target: T1, Tubulin (Sus scrofa) (UniProt P02554+P02550); assay: Inhibition of porcine brain tubulin polymerization at 10 uM measured at 30 secs interval for 65 mins by spectrophotometric method
T1 sequence (P02550 whole entry, looked up): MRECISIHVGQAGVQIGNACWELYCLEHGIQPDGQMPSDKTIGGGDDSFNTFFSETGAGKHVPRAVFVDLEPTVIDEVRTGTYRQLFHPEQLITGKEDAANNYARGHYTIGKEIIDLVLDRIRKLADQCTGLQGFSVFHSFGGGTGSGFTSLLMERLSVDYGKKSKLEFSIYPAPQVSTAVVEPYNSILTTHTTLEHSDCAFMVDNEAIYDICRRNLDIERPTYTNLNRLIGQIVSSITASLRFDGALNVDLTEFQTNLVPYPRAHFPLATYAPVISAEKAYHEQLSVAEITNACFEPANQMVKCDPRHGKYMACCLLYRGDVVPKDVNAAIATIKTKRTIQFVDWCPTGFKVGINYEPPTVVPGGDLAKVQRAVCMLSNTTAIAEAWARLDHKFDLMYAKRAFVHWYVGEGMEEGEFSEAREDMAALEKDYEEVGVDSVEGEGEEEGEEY
T1 sequence (P02554 whole entry, looked up): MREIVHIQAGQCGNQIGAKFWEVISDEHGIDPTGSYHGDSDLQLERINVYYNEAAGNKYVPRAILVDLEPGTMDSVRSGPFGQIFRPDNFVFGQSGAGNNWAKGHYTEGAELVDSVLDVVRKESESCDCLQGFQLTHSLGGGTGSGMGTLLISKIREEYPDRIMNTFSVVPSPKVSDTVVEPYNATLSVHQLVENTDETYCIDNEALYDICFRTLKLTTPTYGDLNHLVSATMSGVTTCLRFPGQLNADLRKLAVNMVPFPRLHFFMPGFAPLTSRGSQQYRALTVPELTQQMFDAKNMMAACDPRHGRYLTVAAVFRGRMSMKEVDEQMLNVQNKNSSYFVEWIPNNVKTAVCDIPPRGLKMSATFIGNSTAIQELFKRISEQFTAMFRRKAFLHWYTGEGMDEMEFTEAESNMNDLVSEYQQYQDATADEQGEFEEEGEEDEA

[6] = system: MDA-MB-231; assay: Antiproliferative activity against human MDA-MB-231 cells measured after 72 hrs by MTS assay; assay type: functional, cell-based; conditions: MDA-MB-231, 72 h
[7] = system: MDA-MB-453; assay: Antiproliferative activity against human MDA-MB-453 cells measured after 72 hrs by MTS assay; assay type: functional, cell-based; conditions: MDA-MB-453, 72 h
[8] = system: A-375; assay: Antitumor activity against human A375 cells xenografted in NSG mouse assessed as reduction in tumor size at 10 to 20 mg/kg, ip administered 5 times per week for 14 days by digital caliper method; assay type: functional, organism-based
[9] = system: A-375; assay: Antitumor activity against human A375 cells xenografted in NSG mouse assessed as reduction in tumor volume at 10 mg/kg, ip administered 5 times per week for 14 days relative to control; assay type: functional; parameters: scale not given: the % may be the effect or the level left
[10] = Resistance index, ratio of IC50 for antiproliferative activity against human M14/LCC6MDR1 cells to IC50 for antiproliferative activity against human M14 cells; assay type: functional
[11] = molecular target: T2, Tubulin (Sus scrofa, UniProt P02554+P02550); assay: (§1) Inhibition of porcine brain tubulin polymerization measured at 30 secs interval for 65 mins by spectrophotometric method
[12] = molecular target: T1, Tubulin (Sus scrofa); assay: as §1
[13] = system: A-375; assay: Antitumor activity against human A375 cells xenografted in NSG mouse assessed as reduction in tumor weight at 10 mg/kg, ip administered 5 times per week for 14 days relative to control; assay type: functional; parameters: scale not given: the % may be the effect or the level left
[14] = Antiproliferative activity against human DU145-TxR cells measured after 72 hrs by MTS assay; assay type: functional, cell-based
[15] = system: PC-3; assay: Antiproliferative activity against human PC3 cells measured after 72 hrs by MTS assay; assay type: functional, cell-based; conditions: PC-3, 72 h
[16] = system: A-375; assay: Antitumor activity against human A375 cells xenografted in ip dosed NSG mouse assessed as tumor growth inhibition administered 5 times per week for 14 days; assay type: functional, organism-based
[17] = system: A-375; assay: Antitumor activity against human A375 cells xenografted in NSG mouse assessed as reduction in tumor weight at 20 mg/kg, ip administered 5 times per week for 14 days relative to control; assay type: functional; parameters: scale not given: the % may be the effect or the level left
[18] = Antiproliferative activity against human PC3/TxR cells measured after 72 hrs by MTS assay; assay type: functional, cell-based
[19] = system: A-375; assay: Antitumor activity against human A375 cells xenografted in ip dosed NSG mouse assessed as suppression of tumor growth by measuring decrease in number Ki67 positive cells administered 5 times per week for 14 days measured post-last dose by immunohistochemical analysis; assay type: functional, organism-based
[20] = system: A-375; assay: Antitumor activity against human A375 cells xenografted in NSG mouse assessed as increase in cleaved PARP level at 10 to 20 mg/kg, ip administered 5 times per week for 14 days measured post-last dose by immunohistochemical analysis; assay type: functional, organism-based
[21] = molecular target: T2, Tubulin; assay: (§2) Binding affinity to porcine brain tubulin polymerization by surface plasmon analysis analysis
[22] = molecular target: T1, Tubulin (Sus scrofa); assay: as §2
[23] = system: A-375; assay: Antitumor activity against human A375 cells xenografted in NSG mouse assessed as reduction in tumor volume at 20 mg/kg, ip administered 5 times per week for 14 days relative to control; assay type: functional; parameters: scale not given: the % may be the effect or the level left
[24] = system: A-375; assay: Antitumor activity against human A375 cells xenografted in NSG mouse assessed as disruption of tumor vasculature development by measuring decrease in CD31 staining at 10 to 20 mg/kg, ip administered 5 times per week for 14 days measured post-last dose by immunohistochemical analysis; assay type: functional, organism-based
[25] = system: DU-145; assay: Antiproliferative activity against human DU145 cells measured after 72 hrs by MTS assay; assay type: functional, cell-based; conditions: DU-145, 72 h
[26] = Resistance index, ratio of IC50 for antiproliferative activity against human DU145-TxR cells to IC50 for antiproliferative activity against human DU145 cells; assay type: functional
[27] = Resistance index, ratio of IC50 for antiproliferative activity against human PC3/TxR cells to IC50 for antiproliferative activity against human PC3 cells; assay type: functional
[28] = Toxicity in human A375 cells xenografted NSG mouse assessed as decrease in body weight loss at 10 to 20 mg/kg, ip administered 5 times per week for 14 days measured 3 times a week during compound dosing; assay type: organism-based; conditions: in vivo, 336 h
[29] = system: A-375; assay: Antitumor activity against human A375 cells xenografted in NSG mouse assessed as tumor necrosis at 10 to 20 mg/kg, ip administered 5 times per week for 14 days measured post-last dose by H and E staining-based microscopic analysis; assay type: functional, organism-based
[30] = Antiproliferative activity against human M14/LCC6MDR1 cells measured after 72 hrs by MTS assay; assay type: functional, cell-based

SMILES: CC(=O)O[C@H]1C(=O)[C@@]2(C)[C@H]([C@H](OC(=O)c3ccccc3)[C@]3(O)C[C@H](OC(=O)[C@H](O)[C@@H](NC(=O)c4ccccc4)c4ccccc4)C(C)=C1C3(C)C)[C@]1(OC(C)=O)CO[C@@H]1C[C@@H]2O [PACLITAXEL]
IC50 [14]: > 1000 nM | IC50 [15]: 1.9 nM | IC50 [18]: 148 nM | IC50 [30]: 200 nM

SMILES: COc1cc(C(=O)c2cccc(-c3ccc(C(N)=O)cc3)n2)cc(OC)c1OC
IC50 [1]: 47.9 nM | IC50 [2]: 66.5 nM | IC50 [3]: 87.4 nM | IC50 [4]: 36.3 nM | IC50 [6]: 39.2 nM | IC50 [7]: 76.3 nM

SMILES: COc1cc(C(=O)c2cccc(-c3ccccc3C)n2)cc(OC)c1OC
IC50 [1]: 27.4 nM | IC50 [2]: 68 nM | IC50 [3]: 52.5 nM | IC50 [4]: 54.2 nM | IC50 [6]: 91.9 nM | IC50 [7]: 58.3 nM

SMILES: COc1cc(C(=O)/C=C/c2cccc(-c3ccc(C)c(O)c3)n2)cc(OC)c1OC
IC50 [1]: > 1000 nM | IC50 [2]: > 1000 nM | IC50 [3]: > 1000 nM | IC50 [4]: > 1000 nM | IC50 [6]: > 1000 nM | IC50 [7]: > 1000 nM

SMILES: COc1cc(C(=O)c2cccc(-c3ccc(O)cc3)n2)cc(OC)c1OC
IC50 [1]: 28.9 nM | IC50 [2]: 386 nM | IC50 [3]: 42.4 nM | IC50 [4]: 22.2 nM | IC50 [6]: 27.7 nM | IC50 [7]: 28.5 nM

SMILES: COc1cc(C(=O)c2cc(F)cc(-c3ccc(C)c(O)c3)c2)cc(OC)c1OC
IC50 [1]: 30 nM | IC50 [2]: 86.4 nM | IC50 [3]: 67 nM | IC50 [4]: 25.2 nM | IC50 [6]: 220 nM | IC50 [7]: 47.2 nM

SMILES: C=C(c1cc(OC)c(OC)c(OC)c1)c1cccc(-c2ccc(C)cc2)n1
IC50 [1]: 167 nM | IC50 [2]: 186 nM | IC50 [3]: 207 nM | IC50 [4]: 154 nM | IC50 [6]: 159 nM | IC50 [7]: 155 nM

SMILES: COc1cc(C(=O)c2ccccn2)cc(OC)c1OC
IC50 [1]: > 1000 nM | IC50 [2]: > 1000 nM | IC50 [3]: > 1000 nM | IC50 [4]: > 1000 nM | IC50 [6]: > 1000 nM | IC50 [7]: > 1000 nM

Now from value to compound, other results behind:

IC50 [2]: 4.8 nM | IC50 [3]: 5.9 nM | inhibition [5]: Active | IC50 [6]: 4.9 nM | IC50 [7]: 5 nM
SMILES: COc1cc(C(=O)c2cccc(-c3ccc(C)cc3)n2)cc(OC)c1OC
IC50 [1]: 4.9 nM | IC50 [4]: 7.2 nM

IC50 [11]: 5000 to 10000 nM | inhibition [12]: Dose-dependent effect | IC50 [2]: 2.8 nM | IC50 [15]: 1.7 nM | Kd [21]: 2660 nM | Activity [22]: Dose-dependent effect | IC50 [25]: 3.7 nM | IC50 [3]: 1.5 nM | inhibition [5]: Active | IC50 [6]: 1.7 nM | IC50 [7]: 1.2 nM
SMILES: COc1cc(C(=O)c2cccc(-c3ccc(C)c(O)c3)n2)cc(OC)c1OC
Activity [8]: Active | IC50 [1]: 0.9 to 1.7 nM | Activity [9]: 58.54% | Ratio IC50 [10]: 1.5 | Activity [13]: 48.81% | IC50 [14]: 2.8 nM | TGI [16]: Dose-dependent effect | Activity [17]: 83.33% | IC50 [18]: 2.5 nM | Activity [19]: Dose-dependent effect | Activity [20]: Active | Activity [23]: 88.5% | Activity [24]: Active | Ratio IC50 [26]: 0.8 | Ratio IC50 [27]: 1.5 | IC50 [4]: 1.7 nM | Activity [28]: Non-Toxic | Activity [29]: Active | IC50 [30]: 1.4 nM

IC50 [2]: 61 nM | IC50 [3]: 62.9 nM | IC50 [6]: 82.4 nM | IC50 [7]: 63.6 nM
SMILES: COc1cc(C(=O)c2cccc(-c3cccc(C)c3)n2)cc(OC)c1OC
IC50 [1]: 46.1 nM | IC50 [4]: 60.7 nM

IC50 [2]: 38.9 nM | IC50 [3]: 41.8 nM | IC50 [6]: 34.7 nM | IC50 [7]: 25.2 nM
SMILES: COc1cc(C(=O)c2cccc(-c3cccc(N)c3)n2)cc(OC)c1OC
IC50 [1]: 25.9 nM | IC50 [4]: 20.1 nM

IC50 [2]: 15 nM | IC50 [3]: 18.1 nM | IC50 [6]: 17.2 nM | IC50 [7]: 17.8 nM
SMILES: COc1cc(C(=O)c2cc(C)cc(-c3ccc(C)c(O)c3)n2)cc(OC)c1OC
IC50 [1]: 22.3 nM | IC50 [4]: 17.1 nM

IC50 [2]: 36.6 nM | IC50 [3]: 25 nM | IC50 [6]: 20.7 nM | IC50 [7]: 21.4 nM
SMILES: COc1cc(C(=O)c2cccc(-c3ccc(F)cc3)n2)cc(OC)c1OC
IC50 [1]: 15.4 nM | IC50 [4]: 23.2 nM

IC50 [2]: 12.5 nM | IC50 [3]: 18.7 nM | inhibition [5]: Active | IC50 [6]: 25.3 nM | IC50 [7]: 11.4 nM
SMILES: COc1cc(C(=O)c2c[nH]c(-c3ccc(C)cc3)n2)cc(OC)c1OC
IC50 [1]: 6.9 nM | IC50 [4]: 6.4 nM
